Tests used:
[1] = tested on: estrogen-deficient (OVX) mice, post-menopausal type bone loss; assay: Ovariectomy (OVX) estrogen-depletion bone loss prevention in mice; format: in vivo
Text: Young adult mice were subjected to surgical ovariectomy (OVX) to deplete estrogen. This is widely accepted model for inducing post-menopausal type bone loss. It is the standard used by pharmaceutical companies in preclinical trials and is required by the FDA to confirm efficacy of an agent in preventing bone loss. Seven sham control mice received a surgical incision and wound closure but ovaries were left intact. Mice were return to their cages after surgery. Six “MB” mice received methylene blue in the cage water (0.2% in cage water supply starting 24 hours before surgery) which they were allowed to consume ad libitum for the duration of the study (three months); the remainder of the mice received normal cage water. Mice were sacrificed at three months post-OVX and bones were examined using microCT. The results are depicted in FIG. 2A and FIG. 2B which show bone changes with estrogen loss (OVX) were prevented by systemic treatment with methylene blue (MB). FIG. 2B is a graph of Bone Volume over Total Volume (BV/TV) for the groups of mice.

[2] = tested on: chronic renal calculus disease; details: 65 mg taken three times a day; cited from earlier work
rats = details: injected at a dose of 1 mg per kg; cited from earlier work
[3] = tested on: aged mouse femur, age-related bone loss; assay: Age-related (Type 2) osteoporosis in aged mice, one year treatment; format: in vivo
Procedure: A one year old mouse is biologically similar to a 45-50 year-old human. Starting at 1 year of age, methylene blue was administered in the cage water supply (0.2% by weight) for one year to three male mice. Control mice received normal water. Animals were free to consume water and food ad libitum. Bones were examined when the mice were two years old, which is similar to a 75-80 year-old person.
FIG. 3A is a micro-Xray image of aged mouse femur from mouse with no treatment. Large holes or pores are clearly seen in the bone, as is thinning of the bone cortex. This is normal age-related osteoporosis.
FIG. 3B is a micro-Xray image of aged mouse femur from mouse after one year duration methylene blue treatment. No increases in porosity or cortex thinning are seen.

[4] = tested on: bipolar manic-depressive patients; details: 300 mg per day for one year; cited from earlier work

CN(C)c1ccc2nc3ccc(=[N+](C)C)cc-3sc2c1 [methylene blue]
Bone loss, Bone Volume over Total Volume (BV/TV) ([1]; 0.2% in cage water ad libitum, three months post-OVX, microCT of distal femur, OVX without treatment approx. 40% reduction in bone volume): almost completely prevented | Bone mechanical property ([1]; mice model of estrogen removal): maintained | Bone mineral density ([1]; mice model of estrogen removal): maintained | Cancellous bone loss after estrogen removal ([1]; mice model of estrogen removal): prevent cancellous bone loss | Osteocyte apoptosis ([1]; mice model of estrogen removal): prevent osteocyte apoptosis | Oxidative stress in bone cells ([1]; mice model of estrogen removal): protect bone cells from oxidative stress | Management of chronic renal calculus disease [2]: useful | Brain oxidative metabolism and memory retention (rats): improved | Bone porosity compared to bones from control mice ([3]; 0.2% by weight in cage water for one year from 1 year of age, male mice, femur examined at two years old, FIG. 4): about half | Cortex thinning (micro-Xray image) ([3]; 0.2% by weight in cage water for one year, aged mouse femur, FIG. 3B): prevented the cortex or shell of the bone from thinning | Depression compared with placebo [4]: significantly less depressed

Reference: patent US20170354617A1, “METHOD OF TREATING OR PREVENTING OSTEOPOROSIS” (Research Foundation of the City University of New York, priority 2016, published 2017)
